# Results reported in patent US20210032257A1, “(E)-1-(4-(DIMETHYLAMINO)BUT-2-ENOYL)PYRROLIDIN-3-YL 4-((3-ISOPROPYL-5-METHYLPYRAZOLO[1,5-A]PYRIMIDIN-7-YL)AMINO)PIPERIDINE-1-CARBOXYLATE FOR INHIBITING CDK7” (Eli Lilly and Company, priority 2017, published 2021).
# Experiments:
# Assay in all cases: Biomarker study proliferation (CellTiter-Glo)
# Assay type in all cases: cell-based
# MKN1 = tested on: MKN1
# Summary of the method: (§1)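 IC50 and % inhibition define three classes: insensitive at IC50≥1 μM; cytostatic at IC50<1 μM with <70% inhibition; cytotoxic at IC50<1 μM with ≥70% inhibition. Values come from 7-day CellTiter-Glo readings.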
# NIHOVCAR3 = tested on: NIHOVCAR3
# Summary of the method: as §1
# HCC4006 = tested on: HCC4006
# Summary of the method: as §1
# HUH28 = tested on: HUH28
# Summary of the method: as §1
# OCUM1 = tested on: OCUM1
# Summary of the method: as §1
# JURKAT = tested on: JURKAT
# Summary of the method: as §1
# U118MG = tested on: U118MG
# Summary of the method: as §1
# SNU308 = tested on: SNU308
# Summary of the method: as §1
# SNU398 = tested on: SNU398
# Summary of the method: as §1
# MDAMB453 = tested on: MDAMB453
# Summary of the method: as §1
# HS766T = tested on: HS766T
# Summary of the method: as §1
# SNU475 = tested on: SNU475
# Summary of the method: as §1
# TGW = tested on: TGW
# Summary of the method: as §1
# SiHa = tested on: SiHa
# Summary of the method: as §1
# HGC27 = tested on: HGC27
# Summary of the method: as §1
# A673 = tested on: A673
# Summary of the method: as §1
# COV318 = conditions: COV318, OVARY, 7 days
# Summary of the method: as §1
# THP1 = tested on: THP1
# Summary of the method: as §1
# MHCC97L = tested on: MHCC97L
# Summary of the method: as §1
# [1] = 168 h, read-out: Anti-proliferation effect IC50
smiles,measurement,setting,value
"Cc1cc(NC2CCN(C(=O)O[C@H]3CCN(C(=O)/C=C/CN(C)C)C3)CC2)n2ncc(C(C)C)c2n1 [Example 1, [(3S)-1-[(E)-4-(dimethylamino)but-2-enoyl]pyrrolidin-3-yl] 4-[(3-isopropyl-5-methyl-pyrazolo[1,5-a]pyrimidin-7-yl)amino]piperidine-1-carboxylate]",IC50,"MKN1; Homo sapiens, MKN-1, 168 h, read-out: Anti-proliferation effect IC50",0.023 µM
same,Anti-proliferation effect % Inh.,"MKN1; MKN1, STOMACH, 7 days",80%
same,Anti-proliferation effect Outcome,"MKN1; MKN1, STOMACH, 7 days",Cytotoxic (cytotoxic (IC50<1 μM and % inhibition ≥70%))
same,IC50,"NIHOVCAR3; Homo sapiens, OVCAR-3, 168 h, read-out: Anti-proliferation effect IC50",0.04 µM
same,Anti-proliferation effect % Inh.,"NIHOVCAR3; NIHOVCAR3, OVARY, 7 days",96%
same,Anti-proliferation effect Outcome,"NIHOVCAR3; NIHOVCAR3, OVARY, 7 days",Cytotoxic (cytotoxic (IC50<1 μM and % inhibition ≥70%))
same,Anti-proliferation effect % Inh.,"HCC4006; HCC4006, LUNG, 7 days",57%
same,Anti-proliferation effect Outcome,"HCC4006; HCC4006, LUNG, 7 days",Cytostatic (cytostatic (IC50<1 μM and % inhibition <70%))
same,IC50,"HCC4006; Homo sapiens, HCC4006, 168 h, read-out: Anti-proliferation effect IC50",0.028 µM
same,IC50,HUH28; [1],2.9 µM
same,Anti-proliferation effect % Inh.,"HUH28; HUH28, BILIARY, 7 days",32%
same,Anti-proliferation effect Outcome,"HUH28; HUH28, BILIARY, 7 days",Insensitive (insensitive (IC50≥1 μM))
same,IC50,"OCUM1; OCUM1, 168 h, read-out: Anti-proliferation effect IC50",0.027 µM
same,Anti-proliferation effect % Inh.,"OCUM1; OCUM1, STOMACH, 7 days",82%
same,Anti-proliferation effect Outcome,"OCUM1; OCUM1, STOMACH, 7 days",Cytotoxic (cytotoxic (IC50<1 μM and % inhibition ≥70%))
same,IC50,"JURKAT; Homo sapiens, Jurkat, 168 h, read-out: Anti-proliferation effect IC50",0.061 µM
same,Anti-proliferation effect % Inh.,"JURKAT; JURKAT, BLOOD, 7 days",98%
same,Anti-proliferation effect Outcome,"JURKAT; JURKAT, BLOOD, 7 days",Cytotoxic (cytotoxic (IC50<1 μM and % inhibition ≥70%))
same,IC50,"U118MG; Homo sapiens, U-118-MG, 168 h, read-out: Anti-proliferation effect IC50",1.17 µM
same,Anti-proliferation effect % Inh.,"U118MG; U118MG, CNS, 7 days",42%
same,Anti-proliferation effect Outcome,"U118MG; U118MG, CNS, 7 days",Insensitive (insensitive (IC50≥1 μM))
same,IC50,SNU308; [1],0.184 µM
same,Anti-proliferation effect % Inh.,"SNU308; SNU308, BILIARY, 7 days",61%
same,Anti-proliferation effect Outcome,"SNU308; SNU308, BILIARY, 7 days",Cytostatic (cytostatic (IC50<1 μM and % inhibition <70%))
same,IC50,"SNU398; Homo sapiens, SNU-398, 168 h, read-out: Anti-proliferation effect IC50",0.021 µM
same,Anti-proliferation effect % Inh.,"SNU398; SNU398, LIVER, 7 days",85%
same,Anti-proliferation effect Outcome,"SNU398; SNU398, LIVER, 7 days",Cytotoxic (cytotoxic (IC50<1 μM and % inhibition ≥70%))
same,IC50,"MDAMB453; Homo sapiens, MDA-MB-453, 168 h, read-out: Anti-proliferation effect IC50",0.039 µM
same,Anti-proliferation effect % Inh.,"MDAMB453; MDAMB453, BREAST, 7 days",56%
same,Anti-proliferation effect Outcome,"MDAMB453; MDAMB453, BREAST, 7 days",Cytostatic (cytostatic (IC50<1 μM and % inhibition <70%))
same,Anti-proliferation effect % Inh.,"HS766T; HS766T, PANCREAS, 7 days",72%
same,Anti-proliferation effect Outcome,"HS766T; HS766T, PANCREAS, 7 days",Cytotoxic (cytotoxic (IC50<1 μM and % inhibition ≥70%))
same,IC50,"HS766T; Hs766T, 168 h, read-out: Anti-proliferation effect IC50",0.062 µM
same,IC50,"SNU475; Homo sapiens, SNU-475, 168 h, read-out: Anti-proliferation effect IC50",3.92 µM
same,Anti-proliferation effect % Inh.,"SNU475; SNU475, LIVER, 7 days",28%
same,Anti-proliferation effect Outcome,"SNU475; SNU475, LIVER, 7 days",Insensitive (insensitive (IC50≥1 μM))
same,IC50,TGW; [1],0.07 µM
same,Anti-proliferation effect % Inh.,"TGW; TGW, BRAIN, 7 days",63%
same,Anti-proliferation effect Outcome,"TGW; TGW, BRAIN, 7 days",Cytostatic (cytostatic (IC50<1 μM and % inhibition <70%))
same,Anti-proliferation effect % Inh.,"SiHa; CERVIX, 7 days",58%
same,Anti-proliferation effect Outcome,"SiHa; ENDOMETRIUM, 7 days",Cytostatic (cytostatic (IC50<1 μM and % inhibition <70%))
same,IC50,"SiHa; Homo sapiens, 168 h, read-out: Anti-proliferation effect IC50",0.105 µM
same,Anti-proliferation effect % Inh.,"HGC27; HGC27, STOMACH, 7 days",78%
same,Anti-proliferation effect Outcome,"HGC27; HGC27, STOMACH, 7 days",Cytotoxic (cytotoxic (IC50<1 μM and % inhibition ≥70%))
same,IC50,"HGC27; Homo sapiens, HGC-27, 168 h, read-out: Anti-proliferation effect IC50",0.068 µM
same,Anti-proliferation effect % Inh.,"A673; A673, BONE, 7 days",96%
same,Anti-proliferation effect Outcome,"A673; A673, BONE, 7 days",Cytotoxic (cytotoxic (IC50<1 μM and % inhibition ≥70%))
same,IC50,"A673; Homo sapiens, A673, 168 h, read-out: Anti-proliferation effect IC50",0.014 µM
same,IC50,COV318; [1],> 10 µM
same,Anti-proliferation effect % Inh.,COV318,40%
same,IC50,"THP1; Homo sapiens, THP-1, 168 h, read-out: Anti-proliferation effect IC50",0.042 µM
same,Anti-proliferation effect % Inh.,"THP1; THP1, BLOOD, 7 days",81%
same,Anti-proliferation effect Outcome,"THP1; THP1, BLOOD, 7 days",Cytotoxic (cytotoxic (IC50<1 μM and % inhibition ≥70%))
same,IC50,MHCC97L; [1],0.526 µM
same,Anti-proliferation effect % Inh.,"MHCC97L; LIVER, 7 days",45%
same,Anti-proliferation effect Outcome,"MHCC97L; LIVER, 7 days",Cytostatic (cytostatic (IC50<1 μM and % inhibition <70%))
